Results taken from PubChem BioAssay (NCI).
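GI50 is the concentration that inhibits growth by half. TGI: total growth inhibition.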

Key:
Assay in all cases: NCI anticancer screen, dose series, 384-well format
786-0 renal = tested on: 786-0 renal
A498 renal = tested on: A498 renal
A549 NSCLC = tested on: A549 NSCLC
BT-549 breast = tested on: BT-549 breast
CCRF-CEM leukemia = tested on: CCRF-CEM leukemia
COLO 205 colon = tested on: COLO 205 colon
EKVX NSCLC = tested on: EKVX NSCLC
HCC-2998 colon = tested on: HCC-2998 colon
HCT-116 colon = tested on: HCT-116 colon
HCT-15 colon = tested on: HCT-15 colon
HL-60(TB) leukemia = tested on: HL-60(TB) leukemia
HOP-62 NSCLC = tested on: HOP-62 NSCLC
HOP-92 NSCLC = tested on: HOP-92 NSCLC
HS 578T breast = tested on: HS 578T breast
IGROV1 ovarian = tested on: IGROV1 ovarian
K-562 leukemia = tested on: K-562 leukemia
KM12 colon = tested on: KM12 colon
LOX IMVI melanoma = tested on: LOX IMVI melanoma
M14 melanoma = tested on: M14 melanoma
MALME-3M melanoma = tested on: MALME-3M melanoma
MCF7 breast = tested on: MCF7 breast
MDA-MB-231 breast = tested on: MDA-MB-231 breast
MDA-MB-435 melanoma = tested on: MDA-MB-435 melanoma
MOLT-4 leukemia = tested on: MOLT-4 leukemia
NCI-H23 lung = tested on: NCI-H23 lung
NCI-H322M lung = tested on: NCI-H322M lung
NCI-H460 NSCLC = tested on: NCI-H460 NSCLC
NCI-H522 lung = tested on: NCI-H522 lung
NCI/ADR-RES ovarian = tested on: NCI/ADR-RES ovarian
OVCAR-3 ovarian = tested on: OVCAR-3 ovarian
OVCAR-4 ovarian = tested on: OVCAR-4 ovarian
OVCAR-5 ovarian = tested on: OVCAR-5 ovarian
OVCAR-8 ovarian = tested on: OVCAR-8 ovarian
PC-3 prostate = tested on: PC-3 prostate
RXF 393 renal = tested on: RXF 393 renal
SF-268 CNS = tested on: SF-268 CNS
SF-539 CNS = tested on: SF-539 CNS
SK-MEL-2 melanoma = tested on: SK-MEL-2 melanoma
SK-MEL-28 melanoma = tested on: SK-MEL-28 melanoma
SN12C renal = tested on: SN12C renal
SNB-19 CNS = tested on: SNB-19 CNS
SR leukemia = tested on: SR leukemia
SW-620 colon = tested on: SW-620 colon
U251 glioblastoma = tested on: U251 glioblastoma
UACC-257 melanoma = tested on: UACC-257 melanoma
UACC-62 melanoma = tested on: UACC-62 melanoma
UO-31 renal = tested on: UO-31 renal

`COCc1c(-c2cc3cc(C)cc(OC)c3s2)c2c(N)ncnn2c1CN1CCNC(=O)C1` was tested, and the GI50 ([…]-0 renal) was 14.2 µM, the TGI (786-0 renal) was > 93.2 µM and the GI50 (A498 renal) was 3.32 µM. For the same molecule, the TGI (A498 renal) was 40.5 µM, the GI50 (A549 NSCLC) was 5.49 µM and the TGI (A549 NSCLC) was > 100 µM. It also gave a GI50 (BT-549 breast) of 0.385 µM, a TGI (BT-549 breast) of 5.45 µM and a GI50 (CCRF-CEM leukemia) of 5.68 µM. For the same molecule, the TGI (CCRF-CEM leukemia) was > 52.5 µM, the GI50 (COLO 205 colon) was 12 µM and the TGI (COLO 205 colon) was > 100 µM. For the same molecule, the GI50 (EKVX NSCLC) was 5.72 µM, the TGI (EKVX NSCLC) was > 69.8 µM and the GI50 (HCC-2998 colon) was 19.1 µM. The TGI (HCC-2998 colon) was > 93.1 µM, the GI50 (HCT-116 colon) was 7.4 µM and the TGI (HCT-116 colon) was > 100 µM. For the same molecule, the GI50 (HCT-15 colon) was 5.39 µM, the TGI (HCT-15 colon) was > 100 µM and the GI50 (HL-60(TB) leukemia) was 7.53 µM. For the same molecule, the TGI (HL-60(TB) leukemia) was 21.8 µM, the GI50 (HOP-62 NSCLC) was 12.8 µM and the TGI (HOP-62 NSCLC) was > 100 µM. For the same molecule, the GI50 (HOP-92 NSCLC) was 2 µM, the TGI (HOP-92 NSCLC) was 18.9 µM and the GI50 (HS 578T breast) was 3.76 µM. It also gave a TGI (HS 578T breast) of 22.4 µM, a GI50 (IGROV1 ovarian) of 4.19 µM and a TGI (IGROV1 ovarian) of 36.8 µM. For the same molecule, the GI50 (K-562 leukemia) was 20.1 µM, the TGI (K-562 leukemia) was > 100 µM and the GI50 (KM12 colon) was 9.87 µM. The TGI (KM12 colon) was > 100 µM, the GI50 (LOX IMVI melanoma) was 5.57 µM and the TGI (LOX IMVI melanoma) was 25.6 µM. For the same molecule, the GI50 (M14 melanoma) was 4.75 µM, the TGI (M14 melanoma) was 41 µM and the GI50 (MALME-3M melanoma) was 4.55 µM. The TGI (MALME-3M melanoma) was 32.6 µM, the GI50 (MCF7 breast) was 5.56 µM and the TGI (MCF7 breast) was > 100 µM. The GI50 (MDA-MB-231 breast) was 5.63 µM, the TGI (MDA-MB-231 breast) was > 72.1 µM and the GI50 (MDA-MB-435 melanoma) was 11.8 µM. For the same molecule, the TGI (MDA-MB-435 melanoma) was 72.2 µM, the GI50 (MOLT-4 leukemia) was 2.68 µM and the TGI (MOLT-4 leukemia) was 8.5 µM. For the same molecule, the GI50 (NCI-H23 lung) was 4.13 µM, the TGI (NCI-H23 lung) was 28.9 µM and the GI50 (NCI-H322M lung) was 3.89 µM. For the same molecule, the TGI (NCI-H322M lung) was 36.8 µM, the GI50 (NCI-H460 NSCLC) was 4.62 µM and the TGI (NCI-H460 NSCLC) was > 96.2 µM. For the same molecule, the GI50 (NCI-H522 lung) was 3.66 µM, the TGI (NCI-H522 lung) was 30.6 µM and the GI50 (NCI/ADR-RES ovarian) was > 100 µM. The TGI (NCI/ADR-RES ovarian) was > 100 µM, the GI50 (OVCAR-3 ovarian) was 5.38 µM and the TGI (OVCAR-3 ovarian) was > 75.2 µM. For the same molecule, the GI50 (OVCAR-4 ovarian) was 13.9 µM, the TGI (OVCAR-4 ovarian) was > 100 µM and the GI50 (OVCAR-5 ovarian) was 10.3 µM. The TGI (OVCAR-5 ovarian) was > 79.5 µM, the GI50 (OVCAR-8 ovarian) was 17.8 µM and the TGI (OVCAR-8 ovarian) was > 100 µM. The GI50 (PC-3 prostate) was 23.2 µM, the TGI (PC-3 prostate) was > 100 µM and the GI50 (RXF 393 renal) was 1.19 µM. For the same molecule, the TGI (RXF 393 renal) was 8.32 µM, the GI50 (SF-268 CNS) was 8.67 µM and the TGI (SF-268 CNS) was > 81.6 µM. The GI50 (SF-539 CNS) was 6.08 µM, the TGI (SF-539 CNS) was > 58.3 µM and the GI50 (SK-MEL-2 melanoma) was 4.38 µM. The TGI (SK-MEL-2 melanoma) was 13.6 µM, the GI50 (SK-MEL-28 melanoma) was 28.7 µM and the TGI (SK-MEL-28 melanoma) was > 100 µM. For the same molecule, the GI50 (SN12C renal) was 7.95 µM, the TGI (SN12C renal) was > 73.6 µM and the GI50 (SNB-19 CNS) was 18.5 µM. The TGI (SNB-19 CNS) was > 100 µM, the GI50 (SR leukemia) was 3.97 µM and the TGI (SR leukemia) was 12.9 µM. The GI50 (SW-620 colon) was 3.27 µM, the TGI (SW-620 colon) was > 23.1 µM and the GI50 (U251 glioblastoma) was 12.1 µM. For the same molecule, the TGI (U251 glioblastoma) was > 100 µM, the GI50 (UACC-257 melanoma) was 29.9 µM and the TGI (UACC-257 melanoma) was > 100 µM. It also gave a GI50 (UACC-62 melanoma) of 6.36 µM, a TGI (UACC-62 melanoma) of 37 µM and a GI50 (UO-31 renal) of 9.39 µM. The TGI (UO-31 renal) was > 100 µM.
